{
  "source": "patent US20140227173A1",
  "about": "“CANCER TREATMENT WITH GAMMA-SECRETASE INHIBITORS” (The Johns Hopkins University, priority 2006, published 2014)",
  "key": {"[1]": {"system": "GBM neurosphere line HSR-GBM1a", "test": "Growth of GBM neurospheres in vitro (total cell number)", "assay_type": "cell-based", "description": "(§1) (A, B) CD133 is expressed in GBM neurosphere line HSR-GBM1a. (C) The total cell number was decreased upon GSI-18 treatment for 48 h in this line and in the subclones of the line. […] (E) Protein expression of Hes1, a Notch pathway target gene, was reduced upon GSI-18 treatment in GBM neurosphere cells.\nIt has been shown that the Notch signaling pathway regulates normal stem cells in the Central Neural System (CNS), and that GBMs contain cancer stem cells (CSCs) with higher Notch activity (Cancer Research, 64:7011-21, 2004; Cancer Cell, 9:391-403, 2006). However, it has not been known if Notch pathway blockade could target CSCs in GBM. […] In the present study, we used GBM neurospheres to examine the effects of Notch pathway blockade in GBM. […] Furthermore, overexpression of an active form of Notch2 (NICD2) increases tumor growth in vitro."}, "[2]": {"test": "Behavioral or physical changes in treated animals", "assay_type": "in vivo, mice", "conditions": "0.5 mg i.p. for five consecutive days", "description": "As a test of the requirement for ongoing Notch activity during tumor engraftment, animals were treated with GSI-18 after subcutaneously injecting DAOY and DAOY:NICD2 cells into their left and right flanks. A treatment group of four mice received intraperitoneal injections containing 0.5 mg GSI-18 in DMSO for five consecutive days, beginning on the day of xenograft initiation, while the control group was treated with vehicle alone."}, "[3]": {"system": "Panc-1 pancreatic cancer cell line", "test": "Tumorigenicity of pre-treated cells injected subcutaneously in athymic mice", "assay_type": "in vivo", "conditions": "five weeks post-injection; no further drug administered; five mice per arm", "description": "(Top) Experimental scheme illustrating pre-treatment of pancreatic cancer cell lines with GSI-18, prior to plating for soft agar assays and subcutaneous injection in athymic mice. Treatment for 24 hours with GSI-18 or vehicle is followed by recovery in full serum for a further 24 hours minus the drug. Equal numbers of viable cells from the control and treated groups are then plated for colony assays in soft agar, or injected in nude mice. Of note, during the in vitro or in vivo assays, no further drug is administered. […] The dosage required for significant inhibition of clonogenicity varies between 2 μM (Capan-1) to 5 μM (E3LZ10.7). Bar graphs represent colony counts at two weeks, with mean and standard deviations calculated from triplicate experiments. (Left) Pre-treatment with GSI-18 inhibits tumorigenicity of Panc-1 pancreatic cancer cell line in athymic mice. […] Error bars represent standard deviation of five mice per arm."}, "[4]": {"system": "Hes1, a Notch pathway target gene", "test": "Hes1 protein expression in GBM neurosphere cells", "assay_type": "cell-based", "description": "as §1"}, "[5]": {"system": "Notch pathway target Hes1", "test": "Hes1 mRNA and protein levels (RT PCR, Western blot)", "assay_type": "cell-based", "description": "The DAOY, PFSK, D283 and D425 Med cell lines were obtained from the American Type Culture Collection. The low-passage MB line MB2 was derived from a tumor resected at Johns Hopkins Hospital. For treatment studies, cell were plated and allowed to grow overnight in MEM (Invitrogen, Carlsbad, Calif.) containing 10% FBS, then media was replaced the next morning with low serum (0.5% FBS) MEM containing GSI dissolved in DMSO. RNA and protein extractions, and all cell-based assays, were performed 48 hours after drug application unless otherwise noted. All experiments with error bars were performed in triplicate and shown as mean values with standard error unless otherwise noted. Cell mass was measured using CellTITER assays according to the manufacturer's instructions (Promega, Madison, Wis.). Cell number and viability were assessed using the Guava PCA and Viacount reagent according to instructions (Guava Technologies, Heyward, Calif.). Soft agar assays were performed as previously described (15) and scored either manually after 4 weeks or using as automated reader after 6 weeks. […] Soft agar assays were performed as previously described, with colonies counted using an automated reader (15).\nQuantitative RT PCR for Notch1, Notch2 and Hes1 was performed as previously described (29), with all reactions normalized to actin (Applied Biosystems, Foster City, Calif.). […]"}, "Akt": {"system": "Akt", "test": "Akt phosphorylation and cleaved Caspase 3 (Western blot) in DAOY medulloblastoma cells", "assay_type": "cell-based", "description": "(A) Increase of cleaved Caspase 3 and loss of Akt phosphorylation is induced by 0.4 uMor higher levels of GSI-18, while overall levels of Akt and GAPDH are unchanged in DAOY medulloblastoma cells. (B) Cell death in 2 uM GSI-18 is reduced in a representative subclone of DAOY expressing activated Akt as compare to vector transfected cells. (C) Loss of Akt phosphorylation and activation of Caspase3 cleavage is induced by 2 μM or higher levels of GSI-18, while overall levels of Akt and GAPDH are unchanged in GBM neurosphere cells.\nIt has previously been shown that Akt is a critical effector of Notch-regulated survival and growth outside the brain (26, 27). Therefore, it was examined whether Akt was also a mediator of the pro-survival and pro-growth effects of Notch in brain tumors. GSI-18 blocks the phosphorylation of Akt required for its activation at concentrations as low as 0.4 μM (FIG. 7F). […] Thus the pro-survival effects of Notch signaling in MB appear to be mediated at least in part by Akt.\nQuantitative RT PCR for Notch1, Notch2 and Hes1 was performed as previously described (29), with all reactions normalized to actin (Applied Biosystems, Foster City, Calif.). Commercially available Assay on Demand Taqman primers and probes were used to measure mRNA for Nestin, Bmi1, Tuj1 and GABRA6. Western blots contained 20 μg of protein per lane on a 10% Tris-glycine SDS-PAGE gel (Invitrogen). […]"}},
  "data": [
    {"molecule": "O=S(=O)(NC1C2CCC1Cc1ccccc1C2)c1cccs1", "note": "(stereo not drawn) [GSI-18, [11-endo]-N-(5,6,7,8,9,10-hexahydro-6,9-methanobenzo[α][8]annulen-11-yl)-thiophene-2-sulfonamide]", "values": [
      {"measurement": "total cell number", "setting": "[1]; 48 h, HSR-GBM1a and subclones", "result": "decreased"},
      {"measurement": "tumor growth in vitro", "setting": "[1]; GBM neurospheres, 2 μM", "result": "inhibits tumor growth in vitro"},
      {"measurement": "behavioral or physical changes", "setting": "[2]", "result": "No behavioral or physical changes were noted"},
      {"measurement": "tumor volumes from pre-treated cells", "setting": "[3]", "result": "minimal tumor volumes"},
      {"measurement": "protein expression of Hes1", "setting": "[4]", "result": "reduced"},
      {"measurement": "reduction of mRNA and protein levels of Hes1", "setting": "[5]; 2 μM, after 48 hours", "result": "over 70%"},
      {"measurement": "levels that did not affect Hes1 mRNA levels", "setting": "[5]; data not shown", "result": "lower than 0.4 μM"},
      {"measurement": "levels inducing increase of cleaved Caspase 3 and loss of Akt phosphorylation", "setting": "Akt; DAOY medulloblastoma cells", "result": "≥ 0.4", "unit": "µM"},
      {"measurement": "concentrations blocking the phosphorylation of Akt", "setting": "Akt; MB cells", "result": "≥ 0.4", "unit": "µM"}
    ]}
  ]
}
